Measurements taken from patent publication US10080757B2 (WISCONSIN ALUMNI RESEARCH FOUNDATION, priority 2016, dated 2018).
Values after ≈ are worked out from the molar mass of the structure shown. “Also recorded” adds a separate entry of the source. Read-outs that look alike come from different tables or passages of the source.

Tests used:
recombinant MtbUGM = target: T1, recombinant MtbUGM (Mycobacterium tuberculosis, UniProt P9WIQ1); experiment: biochemical; conditions: for inhibition at 100 µM: read-out: % inhib MtbUGM (100 μM)
T1 construct: made in house

[1] = Aggregation by Dynamic Light Scattering (DLS); format: physicochemical; conditions: 1% DMSO
[2] = Aggregation by Dynamic Light Scattering (DLS); format: physicochemical; conditions: for Aggregates observed?: 50 mM sodium phosphate buffer, 1% DMSO; for Aggregation by DLS: concentrations up to 50 μM
Protocol: A representative subset of the compounds (1, 2, and 4) were evaluated for aggregation by Dynamic Light Scattering (DLS), see Table 1. Samples for DLS analysis were prepared in 50 mM sodium phosphate buffer from DMSO inhibitor stocks, at a final DMSO concentration of 1%, and a range of final concentrations of inhibitor.

M. smegmatis [3] = experiment: Microplate Alamar Blue Assay (MIC, liquid culture); format: cell-based; conditions: Mycolicibacterium smegmatis
Protocol: The culture was diluted to OD600=˜0.02 in LB liquid media and added to 96-well plates at a final volume of 100 μL, with added inhibitor concentrations in two-fold dilutions. Perimeter wells were filled with sterile water. After 24 hours at 37° C. in a shaking incubator, 10 μL of the Alamar Blue reagent was added to each well. The plate was incubated for an additional 4 hours at 37° C., at which point fluorescence emission at 585 nm was measured using a plate reader. The lowest inhibitor concentration at which 99% or greater growth inhibition was observed was determined to be the MIC.

CeUGM = CeUGM inhibition; format: biochemical, C. elegans
C. elegans [4] = experiment: C. elegans growth and proliferation; format: in vivo; conditions: threshold below which proliferation occurs at decreased rate
Description: As concentration decreases, each of these compounds reaches a threshold where they no longer prevent worm proliferation, but rather cause retarded growth and development. The concentration that appears to be this threshold is reported above. Below this concentration, C. elegans growth and proliferation occur, but at a decreased rate with visible ill effects to the animal.

C. elegans [5] = experiment: Bleach sensitivity assay (time until first rupture); format: in vivo; conditions: 50 microM; adult worms
Protocol: Compounds were tested at 50 microM. Adult worms (C. elegans) were chosen for testing and time until first rupture was measured when worms were placed in a bleach, sodium hydroxide solution. […] A graph showing results is provided as FIG. 4. Each treatment group has approximately an n=20. The Thompson Tau technique was used to determine statistical outliers.

C. elegans [6] = experiment: C. elegans growth and proliferation; format: in vivo; conditions: for Prevention of C. elegans maturation to adulthood and eventual proliferation: 100 μM; for Inhibition of C. elegans proliferation / Effective inhibitor of C. elegans growth at 250 μM: 250 μM
M. smegmatis [7] = experiment: Agar disk diffusion assay; parameters: zone of inhibition: dose or concentration left out as unconfirmed; conditions: for zone of inhibition: Mycolicibacterium smegmatis, read-out: Inhibition zone
Protocol: M. smegmatis was grown to saturation over 48 hours at 37° C. in Middlebrook 7H9 media with Albumin Dextrose Catalase (ADC) enrichment and 0.05% Tween80. The culture was diluted to OD600=˜0.2 in LB liquid media and 100 μL of dilute culture was spread onto LB agar plates, then allowed to soak into the agar for 1 hour at room temperature. Sterile disks (3 mm diameter) were impregnated with a solution of inhibitor in DMSO (1.5 μL) and placed on top of the bacterial lawn. […] The plates were incubated for 72 hours at 37° C., at which point a lawn of bacteria was visible. Zones of inhibition were measured as the average diameter of the region around a cloning disk where bacterial growth was not visible. For each disk, three diameter measurements were taken and averaged.

[8] = 50 μM, mean of two replicates, read-out: % inhib MtbUGM (50 μM)
[9] = 50 μM compound (FIG. 1), read-out: Inhibition of MtbUGM activity
[10] = Table 2, standard deviation, n = 3
[11] = Table 3, liquid media, at least 99% growth inhibition

T1 sequence (P9WIQ1 whole entry): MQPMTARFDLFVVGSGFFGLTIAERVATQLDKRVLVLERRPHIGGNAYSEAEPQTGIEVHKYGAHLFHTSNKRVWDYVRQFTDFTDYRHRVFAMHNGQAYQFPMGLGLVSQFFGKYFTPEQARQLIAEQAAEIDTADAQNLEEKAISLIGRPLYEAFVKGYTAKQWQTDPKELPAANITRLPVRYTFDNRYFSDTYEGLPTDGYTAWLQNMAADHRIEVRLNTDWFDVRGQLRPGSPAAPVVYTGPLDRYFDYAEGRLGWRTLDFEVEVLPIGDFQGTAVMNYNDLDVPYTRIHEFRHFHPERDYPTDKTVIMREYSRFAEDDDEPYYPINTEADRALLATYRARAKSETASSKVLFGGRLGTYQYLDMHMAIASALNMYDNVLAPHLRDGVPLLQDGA

Row | Structure (SMILES) | Aggregates observed? ([2]; Conc. 10 uM) | Aggregates observed? ([2]; Conc. 25 uM) | Aggregates observed? ([2]; Conc. 50 uM) | Aggregates observed? ([2]; Conc. 100 uM) | Aggregation by DLS [2] | IC50 (recombinant MtbUGM; [10]) [µM] | MIC (M. smegmatis [3]; [11]) [µM] | CeUGM % Inhibition at 2.5 μM (CeUGM) [%] | Apparent MIC (μM) to inhibit C. elegans propagation (C. elegans [4]) [µM] | Inhibition of C. elegans proliferation (C. elegans [6]) | Effective inhibitor of C. elegans growth at 250 μM (C. elegans [6]; Table 7) | zone of inhibition (M. smegmatis [7]) [mm] | other results
1 | O=C(O)CC1Sc2nnc(Cc3ccc(Br)cc3)n2N=C1c1ccc(-c2ccccc2)cc1 (centres unmarked) [Compound 25, 2-(6-([1,1′-biphenyl]-4-yl)-3-(4-bromobenzyl)-7H-[1,2,4]triazolo[3,4-b][1,3,4]thiadiazin-7-yl)acetic acid] |  |  |  |  |  |  |  |  |  |  |  |  | MtbUGM activity in presence of compound (in words) (recombinant MtbUGM; 10 μM): completely ablated; inhibition at 10 µM (recombinant MtbUGM; 10 μM, mean of two replicates, read-out: % inhib MtbUGM (10 μM)): 100%; inhibition at 50 µM (recombinant MtbUGM; [8]): 100%; inhibition at 100 µM (recombinant MtbUGM; mean of two replicates): 100%; Effect of surfactant on relative inhibitor potency (recombinant MtbUGM; presence and absence of Tween80): insignificant; Aggregates by dynamic light scattering ([1]; 10 μM in PBS buffer): No aggregates were observed; Aggregates by dynamic light scattering ([1]; 100 μM in PBS buffer): No aggregates were observed
2 | CS(=O)(=O)NC(=O)C(Cc1ccc(I)cc1)Nc1nc(-c2ccc(Cl)c(Cl)c2)cs1 (centres unmarked) [Compound 2, 2-((4-(3,4-dichlorophenyl)thiazol-2-yl)amino)-3-(4-iodophenyl)-N-(methylsulfonyl)propanamide] | No | No | No | No | No aggregation was observed | 12 ± 5 | 25 (≈ 14.9 µg/mL) | 80.7 ± 1.1 | 100 | significantly inhibit | Yes | 7 ± 0.1 | inhibition at 50 µM (recombinant MtbUGM; [9]): > 90%; Time until first rupture in bleach, sodium hydroxide solution (C. elegans [5]): enhances bleach sensitivity significantly; also recorded: statistically significant decrease; Prevention of C. elegans maturation to adulthood and eventual proliferation (C. elegans [6]): show the ability to prevent C. elegans maturation to adulthood and eventual proliferation
3 | O=C(CC1Sc2nnc(Cc3ccc(Br)cc3)n2N=C1c1ccc(Cl)cc1)NS(=O)(=O)c1ccccc1 (centres unmarked) [Compound 13, 2-(3-(4-bromobenzyl)-6-(4-chlorophenyl)-7H-[1,2,4]triazolo[3,4-b][1,3,4]thiadiazin-7-yl)-N-(phenylsulfonyl)acetamide] |  |  |  |  |  |  |  |  | 250 | significantly inhibit |  |  | inhibition at 50 µM (recombinant MtbUGM; [8]): 92%; inhibition at 100 µM (recombinant MtbUGM; mean of two replicates): 94%; IC50 (recombinant MtbUGM; Table 4): 19 ± 6 µM; MIC (M. smegmatis [3]; Table 4): 125 µM (≈ 77.1 µg/mL); CeUGM % Inhibition at 10 μM (CeUGM; 10 μM): 91.7 ± 0.5%; Effective inhibitor of C. elegans growth at 250 μM (C. elegans [6]; Table 8): Yes
4 | O=C(NS(=O)(=O)c1ccccc1[N+](=O)[O-])C(Cc1ccc(I)cc1)Nc1nc(-c2ccc(Cl)c(Cl)c2)cs1 (centres unmarked) [Compound 9, 2-((4-(3,4-dichlorophenyl)thiazol-2-yl)amino)-3-(4-iodophenyl)-N-((2-nitrophenyl)sulfonyl)propanamide] |  |  |  |  |  | 2 ± 1 | 12.5 (≈ 8.79 µg/mL) | 92.1 ± 1.0 | 125 | significantly inhibit | Yes | 5.7 ± 0.1 | 
5 | Cc1ccc(S(=O)(=O)NC(=O)C(Cc2ccc(I)cc2)Nc2nc(-c3ccc(Cl)c(Cl)c3)cs2)cc1 (centres unmarked) [Compound 7, 2-((4-(3,4-dichlorophenyl)thiazol-2-yl)amino)-3-(4-iodophenyl)-N-tosylpropanamide] |  |  |  |  |  | 1 ± 1 | 12.5 (≈ 8.4 µg/mL) | 90.5 ± 0.2 |  |  | No | 6 ± 0.6 | Mycobacterial growth inhibition (in words) (M. smegmatis [7]; disk diffusion, solid media): inactivity
6 | O=C(NS(=O)(=O)c1ccc([N+](=O)[O-])cc1)C(Cc1ccc(I)cc1)Nc1nc(-c2ccc(Cl)c(Cl)c2)cs1 (centres unmarked) [Compound 5, 2-((4-(3,4-dichlorophenyl)thiazol-2-yl)amino)-3-(4-iodophenyl)-N-((4-nitrophenyl)sulfonyl)propanamide] |  |  |  |  |  | 4 ± 1 | 50 (≈ 35.2 µg/mL) | 93.2 ± 0.1 | 125 | significantly inhibit | Yes | 4.2 ± 0.3 | 
7 | O=C(NS(=O)(=O)c1ccccc1)C(Cc1ccc(I)cc1)Nc1nc(-c2ccc(Cl)c(Cl)c2)cs1 (centres unmarked) [Compound 4, 2-((4-(3,4-dichlorophenyl)thiazol-2-yl)amino)-3-(4-iodophenyl)-N-(phenylsulfonyl)propanamide] | No | No | No | Yes | No aggregation was observed | 7 ± 2 | 25 (≈ 16.5 µg/mL) | 92.2 ± 0.2 | 250 | significantly inhibit | Yes | 7.3 ± 0.6 | Time until first rupture in bleach, sodium hydroxide solution (C. elegans [5]): enhances bleach sensitivity significantly; also recorded: statistically significant decrease
8 | O=C(O)C(Cc1ccc(I)cc1)Nc1nc(-c2ccc(Cl)c(Cl)c2)cs1 (centres unmarked) [Compound 1, 2-((4-(3,4-Dichlorophenyl)thiazol-2-yl)amino)-3-(4-iodophenyl)propanoic acid] | No | No | No | Yes | No aggregation was observed | 6 | 50 (≈ 26 µg/mL) | 69.5 ± 1.2 |  |  | No | 5 ± 0.1 | inhibition at 50 µM (recombinant MtbUGM; [9]): > 90%
9 | O=C(NS(=O)(=O)C(F)(F)F)C(Cc1ccc(I)cc1)Nc1nc(-c2ccc(Cl)c(Cl)c2)cs1 (centres unmarked) [Compound 3, 2-((4-(3,4-dichlorophenyl)thiazol-2-yl)amino)-3-(4-iodophenyl)-N-((trifluoromethyl)sulfonyl)propanamide] |  |  |  |  |  | 16 ± 10 | 50 (≈ 32.5 µg/mL) | 84.8 ± 2.2 | 100 | significantly inhibit | Yes | 7.7 ± 0.6 | Prevention of C. elegans maturation to adulthood and eventual proliferation (C. elegans [6]): show the ability to prevent C. elegans maturation to adulthood and eventual proliferation
10 | O=C(NS(=O)(=O)c1ccc(Cl)cc1)C(Cc1ccc(I)cc1)Nc1nc(-c2ccc(Cl)c(Cl)c2)cs1 (centres unmarked) [Compound 8, N-((4-chlorophenyl)sulfonyl)-2-((4-(3,4-dichlorophenyl)thiazol-2-yl)amino)-3-(4-iodophenyl)propanamide] |  |  |  |  |  | 3 ± 1 | 12.5 (≈ 8.66 µg/mL) | 100 ± 0 | 250 | significantly inhibit | Yes | 6.3 ± 0.6 | 
